Source: patent publication US20250163038A1, “CBL-B MODULATORS AND USES THEREOF” (Nimbus Clio, Inc., priority 2021, published 2025)

What was measured:
[1] = biological target: Recombinant human Cbl-b (aa 36-427) (Homo sapiens, UniProt Q13191); test: Cbl-b Biochemical Assay (TR-FRET); conditions: read-out: TR-FRET hCbl-b IC50
[2] = system: Jurkat (clone E6-1) cells with NFAT luciferase reporter; test: Jurkat reporter assay (NFAT Luciferase); assay type: cell-based; conditions: Homo sapiens; Jurkat NFAT luciferase reporter cells, anti-CD3 stimulation, 6 hr; read-out: Jurkat NFAT EC50
[3] = biological target: T1, Recombinant human c-Cbl (aa 47-435) (Homo sapiens, UniProt P22681); test: c-Cbl Biochemical Assay (TR-FRET); conditions: hc-Cbl Biochemical Assay (TR-FRET); read-out: TR-FRET hcCbl IC50
T1 sequence (P22681 47-435): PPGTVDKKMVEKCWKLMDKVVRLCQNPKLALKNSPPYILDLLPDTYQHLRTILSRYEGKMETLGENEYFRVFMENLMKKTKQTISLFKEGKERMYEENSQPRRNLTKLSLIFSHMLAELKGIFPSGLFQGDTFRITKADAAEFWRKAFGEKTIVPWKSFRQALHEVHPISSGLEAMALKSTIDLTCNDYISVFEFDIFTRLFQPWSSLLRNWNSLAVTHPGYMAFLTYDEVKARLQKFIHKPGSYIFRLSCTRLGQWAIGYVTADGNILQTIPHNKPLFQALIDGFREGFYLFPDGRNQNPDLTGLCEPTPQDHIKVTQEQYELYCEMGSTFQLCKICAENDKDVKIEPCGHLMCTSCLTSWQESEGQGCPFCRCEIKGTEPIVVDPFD

Chain of Recombinant human Cbl-b (aa 36-427) (Q13191 36-427): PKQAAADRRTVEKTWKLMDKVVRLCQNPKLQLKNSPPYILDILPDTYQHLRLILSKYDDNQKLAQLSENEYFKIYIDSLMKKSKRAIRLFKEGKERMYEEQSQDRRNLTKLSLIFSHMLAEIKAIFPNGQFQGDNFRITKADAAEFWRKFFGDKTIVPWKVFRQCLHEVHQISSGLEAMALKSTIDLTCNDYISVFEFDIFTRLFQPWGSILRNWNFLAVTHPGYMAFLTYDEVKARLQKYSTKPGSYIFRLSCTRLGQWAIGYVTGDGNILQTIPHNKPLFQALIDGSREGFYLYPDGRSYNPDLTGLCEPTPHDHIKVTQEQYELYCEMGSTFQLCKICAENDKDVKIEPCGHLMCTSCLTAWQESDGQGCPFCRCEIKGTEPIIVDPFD

Row | SMILES | IC50 [1] [nM] | EC50 [2] [nM] | IC50 [3] [nM]
1 | CNCc1cc2nc(-c3cc(-c4ccc(F)cc4-c4nncn4C)cc(C4CC4)n3)oc2c(F)c1F [AHA-2, [(2-{6-cyclopropyl-4-[4-fluoro-2-(4-methyl-1,2,4-triazol-3-yl)phenyl]pyridin-2-yl}-6,7-difluoro-1,3-benzoxazol-5-yl)methyl](methyl)amine] | < 200 | 1000 to 10000 | 200 to 1000
2 | Cn1cnnc1-c1cc(F)ccc1-c1cccc(-c2nc3cc(CNCCO)cc(C(F)(F)F)c3o2)c1 [AN-2, 2-(((2-(4′-Fluoro-2′-(4-methyl-4H-1,2,4-triazol-3-yl)-[1,1′-biphenyl]-3-yl)-7-(trifluoromethyl)benzo[d]oxazol-5-yl)methyl)amino)ethan-1-ol] | < 200 | 1000 to 10000 | 1000 to 10000
3 | Cn1cnnc1-c1cc(F)ccc1-c1cccc(-c2nc3cc(CNCC4(O)CCCC4)cc(C(F)(F)F)c3o2)c1 [AK-2, 1-((((2-(4′-Fluoro-2′-(4-methyl-4H-1,2,4-triazol-3-yl)-[1,1′-biphenyl]-3-yl)-7-(trifluoromethyl)benzo[d]oxazol-5-yl)methyl)amino)methyl)cyclopentan-1-ol, Acetate] | < 200 | 200 to 1000 | 1000 to 10000
4 | COC1(CN[C@@H](C)c2cc(F)c3oc(-c4cc(-c5ccc(F)cc5-c5nncn5C)cc(C5CC5)n4)nc3c2)CCC1 [AFS-2, [(1S)-1-(2-{6-Cyclopropyl-4-[4-fluoro-2-(4-methyl-1,2,4-triazol-3-yl)phenyl]pyridin-2-yl}-7-fluoro-1,3-benzoxazol-5-yl)ethyl][(1-methoxycyclobutyl)methyl]amine] | < 200 | 200 to 1000 | < 200
5 | Cn1cnnc1-c1cc(F)ccc1-c1cccc(-c2nc3cc(CN[C@@H]4CCC[C@@]4(C)O)cc(C(F)(F)F)c3o2)c1 [DP-5, (1R,2R)-2-(((2-(4′-Fluoro-2′-(4-methyl-4H-1,2,4-triazol-3-yl)-[1,1′-biphenyl]-3-yl)-7-(trifluoromethyl)benzo[d]oxazol-5-yl)methyl)amino)-1-methylcyclopentan-1-ol] | < 200 | 200 to 1000 | < 200
6 | Cn1cnnc1-c1cc(F)ccc1-c1cccc(-c2nc3cc(CNC[C@H](O)C4CC4)cc(C(F)(F)F)c3o2)c1 (single isomer, unassigned) [DT-2] | < 200 | < 200 | < 200
7 | Cn1cnnc1-c1cc(F)ccc1-c1cc(-c2nc3cc(CNCC4CCC4)c(F)c(F)c3o2)nc(C2CC2)c1 [AGE-1, 1-Cyclobutyl-N-((2-(6-cyclopropyl-4-(4-fluoro-2-(4-methyl-4H-1,2,4-triazol-3-yl)phenyl)pyridin-2-yl)-6,7-difluorobenzo[d]oxazol-5-yl)methyl)methanamine] | < 200 | < 200 | < 200
8 | C[C@@H](O)CNCc1cc(C(F)(F)F)c2oc(-c3cccc(-c4ccc(F)cc4-c4nncn4C)c3)nc2c1 [AL-2, (R)-1-(((2-(4′-Fluoro-2′-(4-methyl-4H-1,2,4-triazol-3-yl)-[1,1′-biphenyl]-3-yl)-7-(trifluoromethyl)benzo[d]oxazol-5-yl)methyl)amino)propan-2-ol] | < 200 | 200 to 1000 | 1000 to 10000
9 | Cn1cnnc1-c1cc(F)ccc1-c1cccc(-c2nc3cc(CO)cc(C4CC4)c3o2)c1 [ES-4, (7-Cyclopropyl-2-(4′-fluoro-2′-(4-methyl-4H-1,2,4-triazol-3-yl)-[1,1′-biphenyl]-3-yl)benzo[d]oxazol-5-yl)methanol] | < 200 | 1000 to 10000 | 200 to 1000
10 | C[C@H]1CCCN(Cc2cc(C(F)(F)F)c3[nH]c(-c4cccc(-c5ccccc5-c5nncn5C)c4)nc3c2)C1 [AAI-5, 2-[2′-(4-Methyl-1,2,4-triazol-3-yl)-[1,1′-biphenyl]-3-yl]-6-{[(3S)-3-methylpiperidin-1-yl]methyl}-4-(trifluoromethyl)-3H-1,3-benzodiazole] | 200 to 1000 | 1000 to 10000 | 10000 to 50000
11 | COC[C@H](C)NCc1cc(C(F)(F)F)c2oc(-c3cccc(-c4ccc(F)cc4-c4nncn4C)c3)nc2c1 [EJ-2, (S)—N-((2-(4′-Fluoro-2′-(4-methyl-4H-1,2,4-triazol-3-yl)-[1,1′-biphenyl]-3-yl)-7-(trifluoromethyl)benzo[d]oxazol-5-yl)methyl)-1-methoxypropan-2-amine] | < 200 | < 200 | < 200
12 | Cn1cnnc1-c1cc(F)ccc1-c1cccc(-c2nc3cc(CNCC4(C#N)CCOCC4)cc(C(F)(F)F)c3o2)c1 [DY-1, 4-((((2-(4′-Fluoro-2′-(4-methyl-4H-1,2,4-triazol-3-yl)-[1,1′-biphenyl]-3-yl)-7-(trifluoromethyl)benzo[d]oxazol-5-yl)methyl)amino)methyl)tetrahydro-2H-pyran-4-carbonitrile] | < 200 | 200 to 1000 | 200 to 1000
13 | CC(c1cc(C(F)(F)F)c2[nH]c(-c3cccc(C4(Cc5nncn5C)COC4)c3)nc2c1)N1CCC2(CC2)C1 (stereo not drawn) [ACK-3, 5-(1-(5-Azaspiro[2.4]heptan-5-yl)ethyl)-2-(3-(3-((4-methyl-4H-1,2,4-triazol-3-yl)methyl)oxetan-3-yl)phenyl)-7-(trifluoromethyl)-1H-benzo[d]imidazole] | 200 to 1000 | 1000 to 10000 | 10000 to 50000

The remaining lines, values ahead:

Row | IC50 [1] [nM] | EC50 [2] [nM] | IC50 [3] [nM] | SMILES
14 | < 200 | 200 to 1000 | < 200 | CC(=O)NCCNCc1cc(C(F)(F)F)c2oc(-c3cccc(-c4ccc(F)cc4-c4nncn4C)c3)nc2c1 [HD-2, N-(2-(((2-(4′-Fluoro-2′-(4-methyl-4H-1,2,4-triazol-3-yl)-[1,1′-biphenyl]-3-yl)-7-(trifluoromethyl)benzo[d]oxazol-5-yl)methyl)amino)ethyl)acetamide]
15 | < 200 | < 200 | < 200 | Cc1cc(CNCC2(O)CCC2)cc2nc(-c3cccc(-c4ccc(F)cc4-c4nncn4C)c3)oc12 [IJ-1, 1-((((2-(4′-Fluoro-2′-(4-methyl-4H-1,2,4-triazol-3-yl)-[1,1′-biphenyl]-3-yl)-7-methylbenzo[d]oxazol-5-yl)methyl)amino)methyl)cyclobutan-1-ol]
16 | < 200 | 200 to 1000 | 200 to 1000 | CCOCCNCc1cc(OC)c2oc(-c3cccc(-c4ccc(F)cc4-c4nncn4C)c3)nc2c1 [GD-1, 2-Ethoxy-N-((2-(4′-fluoro-2′-(4-methyl-4H-1,2,4-triazol-3-yl)-[1,1′-biphenyl]-3-yl)-7-methoxybenzo[d]oxazol-5-yl)methyl)ethan-1-amine]
17 | < 200 | 200 to 1000 | 1000 to 10000 | Cn1cnnc1-c1cc(F)ccc1-c1cccc(-c2nc3cc(CNCC4(O)CCC4)cc(C(F)(F)F)c3o2)c1 [Example Y-3, 1-((((2-(4′-Fluoro-2′-(4-methyl-4H-1,2,4-triazol-3-yl)-[1,1′-biphenyl]-3-yl)-7-(trifluoromethyl)benzo[d]oxazol-5-yl)methyl)amino)methyl)cyclobutan-1-ol]
18 | 200 to 1000 | 1000 to 10000 | 200 to 1000 | COc1cc(CN[C@@H]2CCC[C@@]2(C)O)cc2nc(-c3cccc(-c4ccc(F)cc4-c4nncn4C)c3)oc12 [GJ-2, (1R,2R)-2-(((2-(4′-fluoro-2′-(4-methyl-4H-1,2,4-triazol-3-yl)-[1,1′-biphenyl]-3-yl)-7-methoxybenzo[d]oxazol-5-yl)methyl)amino)-1-methylcyclopentan-1-ol, Formic Acid]
19 | < 200 | 1000 to 10000 | 200 to 1000 | Cn1cnnc1-c1cc(F)ccc1-c1cccc(-c2nc3cc(NCCN4CCC4)cc(C(F)(F)F)c3o2)c1 [HZ-2, N-(2-(Azetidin-1-yl)ethyl)-2-(4′-fluoro-2′-(4-methyl-4H-1,2,4-triazol-3-yl)-[1,1′-biphenyl]-3-yl)-7-(trifluoromethyl)benzo[d]oxazol-5-amine]
20 | < 200 | 200 to 1000 | < 200 | COCC1(CNCc2cc(C(F)(F)F)c3oc(-c4cccc(-c5ccc(F)cc5-c5nncn5C)c4)nc3c2)CCCC1 [FC-2, 1-(2-(4′-Fluoro-2′-(4-methyl-4H-1,2,4-triazol-3-yl)-[1,1′-biphenyl]-3-yl)-7-(trifluoromethyl)benzo[d]oxazol-5-yl)-N-((1-(methoxymethyl)cyclopentyl)methyl)methanamine]
21 | < 200 | < 200 | < 200 | CCOCCNCc1cc(C(F)(F)F)c2oc(-c3cccc(-c4ccc(F)cc4-c4nncn4C)c3)nc2c1 [FI-2, 2-Ethoxy-N-((2-(4′-fluoro-2′-(4-methyl-4H-1,2,4-triazol-3-yl)-[1,1′-biphenyl]-3-yl)-7-(trifluoromethyl)benzo[d]oxazol-5-yl)methyl)ethan-1-amine]
22 | < 200 | < 200 | < 200 | C[C@H]1CCC[C@@H](NCc2cc(C(F)(F)F)c3oc(-c4cccc(-c5ccc(F)cc5-c5nncn5C)c4)nc3c2)C1 (racemic) [FV-2, rac-(1R,3S)—N-((2-(4′-fluoro-2′-(4-methyl-4H-1,2,4-triazol-3-yl)-[1,1′-biphenyl]-3-yl)-7-(trifluoromethyl)benzo[d]oxazol-5-yl)methyl)-3-methylcyclohexan-1-amine]
